One may read the EC50 as the concentration giving half of the maximal effect.

A value given as a limit tells only on which side of the number the result lay.

The test concerns ATF4 luciferase reporter in HEK293T cells. Kind of test: ATF4-Luc assay (ATF4 luciferase reporter, tunicamycin-treated HEK293T cells). In kind it is cell-based, human. Conditions: Homo sapiens, HEK-293T; HEK293T cells carrying the ATF4 luciferase reporter, 1 μg/mL tunicamycin, 7 hours.

With `Cc1ccc(OCC(=O)NC23CCC(NC(=O)COc4ccc(Cl)cc4)(CC2)[C@@H](O)C3)cc1F` [Compound 732, 2-(4-chlorophenoxy)-N-{(2S)-4-[2-(3-fluoro-4-methylphenoxy)acetamido]-2-hydroxybicyclo[2.2.2]octan-1-yl}acetamide], the EC50 was under 10 nM.

As to `CC(C)(C)OC(=O)CN(CCOc1ccc(Cl)c(F)c1)C12CC(NC(=O)COc3ccc(Cl)c(F)c3)(C1)C2` [Compound 688, tert-butyl ({3-[2-(4-chloro-3-fluorophenoxy)acetamido]bicyclo[1.1.1]pentan-1-yl}[2-(4-chloro-3-fluorophenoxy)ethyl]amino)acetate], the EC50 fell in the range of 50 to 250 nM.

With `O=C(COc1ccc(F)cc1)NC12CCC(NC(=O)COc3ccc(F)cc3)(CC1)[C@@H](O)C2` [Compound 550, N,N′-[(2S)-2-hydroxybicyclo[2.2.2]octane-1,4-diyl]bis[2-(4-fluorophenoxy)acetamide]], the EC50 was under 10 nM.

With `O=C(COc1ccc(Cl)c(F)c1)N[C@@H]1[C@@H]2CC[C@@](NC(=O)COc3ccc(Cl)c(F)c3)(C2)C[C@@H]1O` (racemic) [Compound 638, rac-N,N′-[(1R,3S,4R,5R)-3-hydroxybicyclo[3.2.1]octane-1,4-diyl]bis[2-(4-chloro-3-fluorophenoxy)acetamide]], the EC50 was under 10 nM.

Take `O=C(COc1ccc(Cl)c(F)c1)NC12CCC(NC(=O)COc3ccc(Cl)c(F)c3)(CC1)CC2` [Compound 100, N,N′-(bicyclo[2.2.2]octane-1,4-diyl)bis[2-(4-chloro-3-fluorophenoxy)acetamide]]: the concentration giving a half-maximal response (EC50) was under 10 nM.

Take `Cc1cc(CC(=O)NC23CCC(NC(=O)COc4ccc(Cl)c(F)c4)(CC2)C(O)C3)on1` (stereo not shown) [Compound 423, 2-(4-chloro-3-fluorophenoxy)-N-{2-hydroxy-4-[2-(3-methyl-1,2-oxazol-5-yl)acetamido]bicyclo[2.2.2]octan-1-yl}acetamide]: the EC50 was over 2000 nM.

Turning to `CN(C)c1cccc(CCOCC(=O)NC23CC(NC(=O)COc4ccc(Cl)c(Cl)c4)(C2)C3)c1` [Compound 170, 2-(3,4-dichlorophenoxy)-N-[3-(2-{2-[3-(dimethylamino)phenyl]ethoxy}-acetamido)bicyclo[1.1.1]pentan-1-yl]acetamide], the 50% effective concentration (EC50) is over 2000 nM.

Turning to `COCC(Oc1ccc(Cl)c(F)c1)C(=O)NC12CC(NC(=O)COc3ccc(Cl)c(F)c3)(C1)C2` (stereo not shown) [Compound 421, 2-(4-chloro-3-fluorophenoxy)-N-{3-[2-(4-chloro-3-fluorophenoxy)acetamido]bicyclo[1.1.1]pentan-1-yl}-3-methoxypropanamide], the EC50 lay in the range of 50 to 250 nM.

Consider `O=C(COc1ccnc(C(F)(F)F)c1)NC12CC(NC(=O)COc3ccc4c(c3)OC(F)(F)O4)(C1)C2` [Compound 265, 2-[(2,2-difluoro-2H-1,3-benzodioxol-5-yl)oxy]-N-[3-(2-{[2-(trifluoromethyl)pyridin-4-yl]oxy}acetamido)bicyclo[1.1.1]pentan-1-yl]acetamide], for which the concentration giving a half-maximal response (EC50) lay in the range of 10 to 50 nM.

As to `O=C(COc1ccc(F)c(F)c1)NC12CC(NC(=O)COc3ccc(F)c(F)c3)(C1)C2` [Compound 185, N,N′-(bicyclo[1.1.1]pentane-1,3-diyl)bis[2-(3,4-difluorophenoxy)acetamide]], the EC50 fell in the range of 10 to 50 nM.

For `O=C(COc1ccc(F)c(F)c1)NC12CC(NC(=O)COc3ccc(Cl)c(Cl)c3)(C1)C2` [Compound 584, 2-(3,4-dichlorophenoxy)-N-{3-[2-(3,4-difluorophenoxy)acetamido]bicyclo[1.1.1]pentan-1-yl}acetamide], the EC50 was under 10 nM.

As to `Cc1ccc(OC(=O)NC23CC(NC(=O)COc4ccc(Cl)c(F)c4)(C2)C3)cc1` [Compound 435, 4-methylphenyl {3-[2-(4-chloro-3-fluorophenoxy)acetamido]bicyclo[1.1.1]pentan-1-yl}carbamate], the EC50 lay in the range of 250 to 500 nM.

For the molecule `O=C(CCCc1cccc(Cl)c1)NC12CC(NC(=O)COc3ccc(Cl)c(F)c3)(C1)C2` [Compound 543, N-{3-[2-(4-chloro-3-fluorophenoxy)acetamido]bicyclo[1.1.1]pentan-1-yl}-4-(3-chlorophenyl)butanamide], the EC50 was 50 to 250 nM.

With `O=C(COc1ccc(S(F)(F)(F)(F)F)nc1)NC12CCC(NC(=O)COc3ccc(Cl)c(F)c3)(CC1)[C@@H](O)C2` [Compound 838, 2-(4-chloro-3-fluorophenoxy)-N-[(2S)-2-hydroxy-4-(2-{[6-(pentafluoro-lambda^6-sulfanyl)pyridin-3-yl]oxy}acetamido)bicyclo[2.2.2]octan-1-yl]acetamide], the 50% effective concentration (EC50) was under 10 nM.

Regarding `CN(CC(=O)NC12CC(NC(=O)COc3ccc(Cl)c(F)c3)(C1)C2)C(=O)c1ccc(Cl)cc1` [Compound 204, 4-chloro-N-[2-({3-[2-(4-chloro-3-fluorophenoxy)acetamido]-bicyclo[1.1.1]pentan-1-yl}amino)-2-oxoethyl]-N-methylbenzamide], the EC50 was 500 to 2000 nM.

Consider `O=C(COc1ccc(Cl)c(F)c1)NC12CC(NC(=O)COc3c(F)cc(F)cc3F)(C1)C2` [Compound 406, 2-(4-chloro-3-fluorophenoxy)-N-{3-[2-(2,4,6-trifluorophenoxy)acetamido]bicyclo[1.1.1]pentan-1-yl}acetamide], for which the EC50 is 10 to 50 nM.

Regarding `N#CC(COc1ccc(Cl)cc1)NC12CCC(NC(=O)COc3ccc(Cl)c(F)c3)(CC1)[C@@H](O)C2` (stereo partly drawn) [Compound 699, 2-(4-chloro-3-fluorophenoxy)-N-[(2S)-4-{[2-(4-chlorophenoxy)-1-cyanoethyl]amino}-2-hydroxybicyclo[2.2.2]octan-1-yl]acetamide], the 50% effective concentration (EC50) lay in the range of 10 to 50 nM.

`CN(C)c1ccc(CC(=O)NC23CCC(NC(=O)COc4ccc(Cl)c(F)c4)(CC2)CC3O)cc1` (stereo not shown) [Compound 320, 2-(4-chloro-3-fluorophenoxy)-N-(4-{2-[4-(dimethylamino)phenyl]acetamido}-3-hydroxybicyclo[2.2.2]octan-1-yl)acetamide]: the concentration giving a half-maximal response (EC50) fell in the range of 500 to 2000 nM.

For `O=C(COc1ccc(Cl)c(F)c1)N[C@]12CC[C@](NC(=O)COc3ccc(Cl)c(F)c3)(C[C@@H]1O)[C@@H](O)C2` (racemic) [Compound 560, rac-N,N′-[(1S,2S,4S,5S)-2,5-dihydroxybicyclo[2.2.2]octane-1,4-diyl]bis[2-(4-chloro-3-fluorophenoxy)acetamide]], the 50% effective concentration (EC50) is under 10 nM.

Take `COc1ccc(COCC(=O)NC23CC(NC(=O)COc4ccc(Cl)c(F)c4)(C2)C3)cn1` [Compound 281, 2-(4-chloro-3-fluorophenoxy)-N-(3-{2-[(6-methoxypyridin-3-yl)methoxy]acetamido}bicyclo[1.1.1]pentan-1-yl)acetamide]: the EC50 lay in the range of 500 to 2000 nM.

As to `O=C(COc1ccc(Cl)c(Cl)c1)NC12CCC(NC(=O)COc3ccc(Cl)c(Cl)c3)(CC1)C(=O)N2` [Compound 600, N,N′-(3-oxo-2-azabicyclo[2.2.2]octane-1,4-diyl)bis[2-(3,4-dichlorophenoxy)acetamide]], the EC50 is under 10 nM.

As for `Cc1nc(F)ccc1OCC(=O)NC12CC(NC(=O)COc3ccc(Cl)c(F)c3)(C1)C2` [Compound 249, 2-(4-chloro-3-fluorophenoxy)-N-(3-{2-[(6-fluoro-2-methylpyridin-3-yl)oxy]acetamido}bicyclo[1.1.1]pentan-1-yl)acetamide], the concentration giving a half-maximal response (EC50) is 250 to 500 nM.

Take `CC(C)c1ccc(OCC(=O)NC23CC(NC(=O)COc4ccc(Cl)c(F)c4)(C2)C3)cn1` [Compound 248, 2-(4-chloro-3-fluorophenoxy)-N-[3-(2-{[6-(propan-2-yl)pyridin-3-yl]oxy}acetamido)bicyclo[1.1.1]pentan-1-yl]acetamide]: the EC50 fell in the range of 50 to 250 nM.

As for `N#Cc1ncc(OCC(=O)NC23CCC(NC(=O)COc4ccc(Cl)c(F)c4)(CC2)[C@@H](O)C3)cn1` [Compound 623, 2-(4-chloro-3-fluorophenoxy)-N-[(2S)-4-{2-[(2-cyanopyrimidin-5-yl)oxy]acetamido}-2-hydroxybicyclo[2.2.2]octan-1-yl]acetamide], the EC50 was in the range of 10 to 50 nM.

As for `O=C(COc1ccc(F)c(C(F)F)c1)NC12CCC(NC(=O)COc3ccc(F)c(F)c3)(CC1)[C@@H](O)C2` [Compound 775, 2-[3-(difluoromethyl)-4-fluorophenoxy]-N-{(3S)-4-[2-(3,4-difluorophenoxy)acetamido]-3-hydroxybicyclo[2.2.2]octan-1-yl}acetamide], the EC50 is under 10 nM.

In the case of `O=C(COc1cc(C(F)(F)F)nc(C(F)(F)F)c1)NC12CC(NC(=O)COc3ccc(Cl)c(F)c3)(C1)C2` [Compound 296, 2-{[2,6-bis(trifluoromethyl)pyridin-4-yl]oxy}-N-{3-[2-(4-chloro-3-fluorophenoxy)acetamido]bicyclo[1.1.1]pentan-1-yl}acetamide], the 50% effective concentration (EC50) is over 2000 nM.

For the molecule `Cc1nn(C)c(C)c1OCC(=O)NC12CC(NC(=O)COc3ccc(Cl)c(F)c3)(C1)C2` [Compound 374, 2-(4-chloro-3-fluorophenoxy)-N-(3-{2-[(1,3,5-trimethyl-1H-pyrazol-4-yl)oxy]acetamido}bicyclo[1.1.1]pentan-1-yl)acetamide], the 50% effective concentration (EC50) is over 2000 nM.

Consider `O=C(COc1ccc(Cl)c(F)c1)NC12CC(NC(=O)C3(c4ccc(Cl)cc4)CC3)(C1)C2` [Compound 668, N-{3-[2-(4-chloro-3-fluorophenoxy)acetamido]bicyclo[1.1.1]pentan-1-yl}-1-(4-chlorophenyl)cyclopropane-1-carboxamide], for which the EC50 is over 2000 nM.

As for `Cn1cc(OCC(=O)NC23CCC(NC(=O)COc4ccccn4)(CC2)C[C@@H]3O)cn1` [Compound 661, N-[(2S)-2-hydroxy-4-{2-[(pyridin-2-yl)oxy]acetamido}bicyclo[2.2.2]octan-1-yl]-2-[(1-methyl-1H-pyrazol-4-yl)oxy]acetamide], the EC50 is over 2000 nM.

Consider `O=C(COc1ccc(Cl)c(F)c1)NC12CC(NC(=O)C(CCO)Oc3ccc(Cl)cc3)(C1)C2` (stereo not shown) [Compound 827, N-{3-[2-(4-chloro-3-fluorophenoxy)acetamido]bicyclo[1.1.1]pentan-1-yl}-2-(4-chlorophenoxy)-4-hydroxybutanamide], for which the concentration giving a half-maximal response (EC50) is 50 to 250 nM.

Turning to `Cc1ccc(OCC(=O)NC23CC(NC(=O)COc4ccc(Cl)c(F)c4)(C2)C3)cc1C` [Compound 456, 2-(4-chloro-3-fluorophenoxy)-N-{3-[2-(3,4-dimethylphenoxy)acetamido]bicyclo[1.1.1]pentan-1-yl}acetamide], the EC50 is under 10 nM.

For the origin of these results see patent US20240166652A1, “MODULATORS OF THE INTEGRATED STRESS PATHWAY” (Calico Life Sciences LLC, priority 2017, published 2024).
